Earlier results as cited in patent publication US8273780B2, “Polycyclic antagonists of lysophosphatidic acid receptors” (Amira Pharmaceuticals, Inc., priority 2009, dated 2012).

Assays:
[1] = tested on: pancreatic cancer cell lines; details: in response to LPA and peritoneal fluid (ascites) from pancreatic cancer patients; cited from earlier work
[2] = tested on: highly peritoneal metastatic pancreatic cancer cell line; details: LPA-induced and ascites-induced; cited from earlier work
UUO mice = details: in LPA1 (−/−) mice renal fibrosis was significantly attenuated; cited from earlier work

Cc1noc(-c2ccc(CSCCC(=O)O)cc2)c1NC(=O)OC(C)c1ccccc1Cl (stereo not drawn) [Ki16425]
in vitro migration [1]: effectively blocked
invasion activity [2]: blocked
development of renal fibrosis (UUO mice): closely resembled the LPA1 (−/−) mice
